Source: ChEMBL document CHEMBL5728428, “Bicyclic lactams and methods of use thereof” (2021)

Molecular target: T1, Receptor-interacting serine/threonine-protein kinase 1 (Homo sapiens, UniProt Q13546)
T1 sequence (Q13546 whole entry): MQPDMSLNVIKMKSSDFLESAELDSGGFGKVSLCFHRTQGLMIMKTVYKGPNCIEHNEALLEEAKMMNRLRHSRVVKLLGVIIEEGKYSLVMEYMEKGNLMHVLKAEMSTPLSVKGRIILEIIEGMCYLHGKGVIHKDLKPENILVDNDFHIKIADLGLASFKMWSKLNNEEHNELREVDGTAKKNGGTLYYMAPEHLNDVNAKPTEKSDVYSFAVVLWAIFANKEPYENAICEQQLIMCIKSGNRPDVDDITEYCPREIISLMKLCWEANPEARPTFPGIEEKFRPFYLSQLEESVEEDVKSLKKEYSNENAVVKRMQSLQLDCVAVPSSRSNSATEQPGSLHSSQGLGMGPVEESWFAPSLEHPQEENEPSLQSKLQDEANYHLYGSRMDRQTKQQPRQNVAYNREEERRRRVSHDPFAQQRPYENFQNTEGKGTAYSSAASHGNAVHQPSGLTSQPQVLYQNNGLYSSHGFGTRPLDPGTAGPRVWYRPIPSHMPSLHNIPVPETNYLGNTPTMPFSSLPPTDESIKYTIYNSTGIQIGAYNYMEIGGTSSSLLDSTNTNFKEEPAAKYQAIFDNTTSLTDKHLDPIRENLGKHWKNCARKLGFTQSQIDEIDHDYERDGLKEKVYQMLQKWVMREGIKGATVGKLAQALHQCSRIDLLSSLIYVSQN
Test: Biochemical Assay: The ability of the receptor interacting protein kinase (RIPK1) to catalyze the hydrolysis of adenosine-5′-triphosphate (ATP) is monitored using the Transcreener ADP (adenosine-5′-diphosphate) assay (BellBrook Labs).

Question: With `CN1C(=O)[C@@H](NC(=O)c2n[nH]c3c2CC(C)(C)OC3)COc2ccccc21` as the compound, how does the Ki read?
Answer: The Ki was 469 nM.
